The test system of data set [1] is M-Hela. Put plainly: Cytotoxicity assay (Cytell Cell Imaging, DAPI/propidium iodide), cancer cell line. Particulars: Homo sapiens, M-HeLa, read-out: IC50 Cancer Cell Line M-Hela. In kind it is cell-based.
Data set [2] relates to Chang liver cell line. Description: Cytotoxicity assay (Cytell Cell Imaging), normal cell line. It counts as cell-based. Particulars: Homo sapiens, read-out: IC50 Normal Cell Line Chang Liver.
In data set [3] the test system is P388 murine leukemia. Put plainly: In vivo anti-tumor activity, i.p. implanted leukemia. On the set-up: species or system BDF1 hybrid male mice. Particulars: for ILS / MST ± SD: P388; for Survival: day 60. Here is the method: Animals. In vivo experiments were performed using the BDF1 hybrid male mice of 22–24 g weight. The experimental animals were caged in a standard vivarium in 12 h light conditions with free access to food and water. All manipulations with the animals were performed in accordance with the solutions of the Commission on Bioethics of the Institute of Problems of Chemical Physics, Russian Academy of Sciences (IPCP RAS).
Anti-tumor activity. The tumors were transplanted intraperitoneally (i.p.) in accordance with a standard procedure inoculum: 10^6 tumor cells in isotonic solution of NaCl, V = 0.2 cm^3 (leukemia P388). Original compounds were injected intraperitoneally as aqueous solution. Doses from 18 to 83 mg/kg/day and the mode of administration on days 1, 5, and 9 after transplantation were used. In each experiment, a single group of tumor-bearing animals not injected with the compounds served as the control group. Each group consisted of six mice. The animals were observed daily for survival for a minimum of 60 days. The efficacy of the therapy against leukemia (defined as increase in lifespan—ILS) was assessed as the percentage of the median survival time (MST) of the treated group (t) to that of the control group (c): ILS(%) = (MSTt/MSTc) × 100.
Statistics. The experiments were carried out in triplicate. The data are presented in the form X ± SD (mean ± standard deviation). The significance of the differences between the groups was assessed using Student’s t-test. Values of p < 0.05 were considered statistically significant. The data were processed statistically using GraphPad Prism.

Setting [4] is: 18 mg/kg/day i.p., days 1, 5, 9.
The mark [5] stands for this setting: 26 mg/kg/day i.p., days 1, 5, 9.
Where [6] appears, read: 40 mg/kg/day i.p., days 1, 5, 9.
The mark [7] stands for this setting: 55 mg/kg/day i.p., days 1, 5, 9.
Setting [8] is: 83 mg/kg/day i.p., days 1, 5, 9.

A value given as a limit tells only on which side of the number the result lay.

Broadly, the IC50 is the concentration at which inhibition is half-maximal. A word on the melting point: it is the temperature of the solid-liquid transition. `NC(=O)N1CCCC1c1cc2c(cc1O)OCO2` (stereo not drawn) [5a, 2-(6-Hydroxybenzo[d][1,3]dioxol-5-yl)pyrrolidine-1-carboxamide] showed a melting point of 206 to 207 °C. In addition, the IC50 in data set [1] was above 100 µM. Besides, in data set [2], the half-maximal inhibitory concentration (IC50) is above 100 µM.
As for `COc1ccc(NC(=O)N2CCCC2c2cc3c(cc2O)OCO3)cc1` (stereo not drawn) [5c, 2-(6-Hydroxybenzo[d][1,3]dioxol-5-yl)-N-(4-methoxyphenyl)pyrrolidine-1-carboxamide], the melting point fell in the range of 112 to 114 °C. Also, the half-inhibitory concentration (IC50) in data set [1] was above 100 µM. In addition, the IC50 in data set [2] is above 100 µM.
For `O=C(Nc1ccc(Br)cc1)N1CCCC1c1cc2c(cc1O)OCO2` (stereo not drawn) [5d, N-(4-Bromophenyl)-2-(6-hydroxybenzo[d][1,3]dioxol-5-yl)pyrrolidine-1-carboxamide], the melting point is 164 °C. In data set [1], the IC50 is above 100 µM. Besides, in data set [2], the IC50 was above 100 µM.
For the molecule `O=C(Nc1ccc(F)cc1)N1CCCC1c1cc2c(cc1O)OCO2` (stereo not drawn) [5e, N-(4-Fluorophenyl)-2-(6-hydroxybenzo[d][1,3]dioxol-5-yl)pyrrolidine-1-carboxamide], the melting point was in the range of 184 to 185 °C. Moreover, the IC50 in data set [1] was above 100 µM. In addition, the IC50 in data set [2] is above 100 µM.
For `CCCCCCNC(=O)N1CCCC1c1cc2c(cc1O)OCO2` (stereo not drawn) [5f, N-Hexyl-2-(6-hydroxybenzo[d][1,3]dioxol-5-yl)pyrrolidine-1-carboxamide], the melting point was 91 to 93 °C. For the same molecule, in data set [1], the IC50 was above 100 µM. The IC50 in data set [2] was above 100 µM.
In turn, `O=C(NC1CCCCC1)N1CCCC1c1cc2c(cc1O)OCO2` (stereo not drawn) [5g, N-Cyclohexyl-2-(6-hydroxybenzo[d][1,3]dioxol-5-yl)pyrrolidine-1-carboxamide] yielded a melting point of 159 to 160 °C. Besides, the IC50 in data set [1] is above 100 µM. Also, the IC50 in data set [2] is above 100 µM.
For `CCCCCCNC(=O)N1CCCC1c1ccc(Nc2c([N+](=O)[O-])c(Cl)cc3c2no[n+]3[O-])cc1O` (stereo not drawn) [6f, 6-Chloro-4-((4-(1-(hexylcarbamoyl)pyrrolidin-2-yl)-3-hydroxyphenyl)amino)-5-nitrobenzo[c][1,2,5]oxadiazole 1-oxide], the melting point was 121 to 122 °C (dec.). Besides, in data set [1], the IC50 stood at 47 ± 2.9 µM. The IC50 in data set [2] worked out at 57 ± 4.3 µM.
In the same order, the values of `Cc1cc(O)c(C2CCCN2C(=O)Nc2ccccc2)c(=O)o1` (stereo not drawn) [7b, 2-(4-Hydroxy-6-methyl-2-oxo-2H-pyran-3-yl)-N-phenylpyrrolidine-1-carboxamide] are 190 to 191 °C, above 100 µM and above 100 µM.
The molecule `COc1ccc(NC(=O)N2CCCC2c2c(O)cc(C)oc2=O)cc1` (stereo not drawn) [7c, 2-(4-Hydroxy-6-methyl-2-oxo-2H-pyran-3-yl)-N-(4-methoxyphenyl)pyrrolidine-1-carboxamide] showed a melting point of 168 to 169 °C. Further, the half-maximal inhibitory concentration (IC50) in data set [1] was above 100 µM. Further, the IC50 in data set [2] was above 100 µM.
In turn, `Cc1cc(O)c(C2CCCN2C(=O)Nc2ccc(F)cc2)c(=O)o1` (stereo not drawn) [7e, N-(4-Fluorophenyl)-2-(4-hydroxy-6-methyl-2-oxo-2H-pyran-3-yl)pyrrolidine-1-carboxamide] gave a melting point of 177 to 178 °C. The half-inhibitory concentration (IC50) in data set [1] was above 100 µM. Also, in data set [2], the IC50 was above 100 µM.
In the case of `CCCCCCNC(=O)N1CCCC1c1c(O)cc(C)oc1=O` (stereo not drawn) [7f, N-Hexyl-2-(4-hydroxy-6-methyl-2-oxo-2H-pyran-3-yl)pyrrolidine-1-carboxamide], the melting point fell in the range of 137 to 138 °C. The IC50 in data set [1] is above 100 µM. Also, the IC50 in data set [2] was above 100 µM.
The molecule `Cc1cc(O)c(C2CCCN2C(=O)NC2CCCCC2)c(=O)o1` (stereo not drawn) [7g, N-Cyclohexyl-2-(4-hydroxy-6-methyl-2-oxo-2H-pyran-3-yl)pyrrolidine-1-carboxamide] came in with a melting point of 184 to 185 °C. Moreover, the IC50 in data set [1] was above 100 µM. In data set [2], the IC50 is above 100 µM.
`O=C(Nc1ccccc1)N1CCCC1c1c(O)c2ccccc2oc1=O` (stereo not drawn) [8b, 2-(4-Hydroxy-2-oxo-2H-chromen-3-yl)-N-phenylpyrrolidine-1-carboxamide]: the melting point lay within 179 to 180 °C. Further, the concentration for half-maximal inhibition (IC50) in data set [1] was above 100 µM. Besides, in data set [2], the IC50 was above 100 µM.
For the molecule `COc1ccc(NC(=O)N2CCCC2c2c(O)c3ccccc3oc2=O)cc1` (stereo not drawn) [8c, 2-(4-Hydroxy-2-oxo-2H-chromen-3-yl)-N-(4-methoxyphenyl)pyrrolidine-1-carboxamide], the melting point was 152 to 153 °C. In data set [1], the IC50 is above 100 µM. The half-maximal inhibitory concentration (IC50) in data set [2] is above 100 µM.
On to `O=C(Nc1ccc(Br)cc1)N1CCCC1c1c(O)c2ccccc2oc1=O` (stereo not drawn) [8d, N-(4-Bromophenyl)-2-(4-hydroxy-2-oxo-2H-chromen-3-yl)pyrrolidine-1-carboxamide], for which the melting point is 179 °C. Also, the IC50 in data set [1] is above 100 µM. Moreover, the IC50 in data set [2] is above 100 µM.
In turn, `O=C(Nc1ccc(F)cc1)N1CCCC1c1c(O)c2ccccc2oc1=O` (stereo not drawn) [8e, N-(4-Fluorophenyl)-2-(4-hydroxy-2-oxo-2H-chromen-3-yl)pyrrolidine-1-carboxamide] showed a melting point of 165 °C. In addition, the IC50 in data set [1] is above 100 µM. The 50% inhibitory concentration (IC50) in data set [2] was above 100 µM.
In turn, `CCCCCCNC(=O)N1CCCC1c1c(O)c2ccccc2oc1=O` (stereo not drawn) [8f, N-Hexyl-2-(4-hydroxy-2-oxo-2H-chromen-3-yl)pyrrolidine-1-carboxamide] displayed a melting point of 124 to 125 °C. Moreover, the concentration for half-maximal inhibition (IC50) in data set [1] is above 100 µM. In data set [2], the IC50 was above 100 µM.
The molecule `O=C(NC1CCCCC1)N1CCCC1c1c(O)c2ccccc2oc1=O` (stereo not drawn) [8g, N-Cyclohexyl-2-(4-hydroxy-2-oxo-2H-chromen-3-yl)pyrrolidine-1-carboxamide] came in with a melting point of 166 to 167 °C. Besides, the 50% inhibitory concentration (IC50) in data set [1] is above 100 µM. Moreover, the IC50 in data set [2] is above 100 µM.
Usually ILS stands for how much longer treated animals lived than controls. `CN(C)CCNC(=O)N1CCCC1c1c(O)c2ccccc2oc1=O.O=C(O)C(F)(F)F` (stereo not drawn) [8h, 2-(2-(4-Hydroxy-2-oxo-2H-chromen-3-yl)pyrrolidine-1-carboxamido)-N,N-dimethylethan-1-aminium 2,2,2-trifluoroacetate]: the IC50 in data set [1] and in data set [2] was above 100 µM each time. Further, the increase in life span (ILS) in data set [3] (setting [4]) is 93%; in data set [3] (setting [5]) it was 107%; in data set [3] (setting [6]) it was 32%; in data set [3] (setting [7]) it was 98%; in data set [3] (setting [8]), 162%. Besides, the “MST ± SD” value is 19.3 ± 8.1 days in data set [3] (setting [4]); 20.7 ± 8.0 days in data set [3] (setting [5]); 13.2 ± 1.6 days in data set [3] (setting [6]); 19.8 ± 8.1 days in data set [3] (setting [7]); 26.2 ± 10.7 days in data set [3] (setting [8]). For the same molecule, the Survival worked out at 17% in data set [3] (18 mg/kg/day); 17% in data set [3] (26 mg/kg/day); 0% in data set [3] (40 mg/kg/day); 17% in data set [3] (55 mg/kg/day); 33% in data set [3] (83 mg/kg/day). For the same molecule, in data set [3] (P388, dose range 18–83 mg/kg/day i.p., days 1, 5, 9), the “antitumor (anti-leukemic) activity, in words” value is recorded as “pronounced anti-leukemic activity”.

Source of the values: paper PMC6749236, “Synthesis of Novel 2-(Het)arylpyrrolidine Derivatives and Evaluation of Their Anticancer and Anti-Biofilm Activity” (Molecules, 2019).
